Test results as given in patent US8883782B2, “Spiro-tetracyclic ring compounds as beta-secretase modulators and methods of use” (Amgen Inc., priority 2010, dated 2014).
Where two headings read alike, the source gives them in different places.

Experiments:
[1] = system: Aβ40 in conditioned medium of cells stably expressing Amyloid Precursor Protein (APP); test: In vitro BACE cell-based assay (Aβ40 in conditioned medium, sandwich ELISA); conditions: Homo sapiens, read-out: HEK cell assay
Procedure, shortened: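 Quantification relied on pAb40/6E10 sandwich ELISA with Europium fluorescence counts, and IC50 was fitted versus concentration.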

[2] = target: Beta Secretase enzyme (BACE) (Homo sapiens, UniProt P56817); test: In vitro enzymatic BACE FRET (fluorescence resonance energy transfer) assay; format: biochemical; conditions: average IC50, enzyme assay; read-out: BACE 1 FRET assay
Procedure, shortened: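 Run in 0.05 M acetate pH 4.2 with 10% DMSO final and 100 uM genapol; started by adding 50 nM FRET peptide substrate (fluorophore and quencher flanking the cleavage site), incubated one hour, then stopped with Tris to neutral pH before reading fluorescence.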

[3] = HEK293, average IC50, HEK cells

Sequence of Beta Secretase enzyme (BACE) (P56817 46-501, species assumed): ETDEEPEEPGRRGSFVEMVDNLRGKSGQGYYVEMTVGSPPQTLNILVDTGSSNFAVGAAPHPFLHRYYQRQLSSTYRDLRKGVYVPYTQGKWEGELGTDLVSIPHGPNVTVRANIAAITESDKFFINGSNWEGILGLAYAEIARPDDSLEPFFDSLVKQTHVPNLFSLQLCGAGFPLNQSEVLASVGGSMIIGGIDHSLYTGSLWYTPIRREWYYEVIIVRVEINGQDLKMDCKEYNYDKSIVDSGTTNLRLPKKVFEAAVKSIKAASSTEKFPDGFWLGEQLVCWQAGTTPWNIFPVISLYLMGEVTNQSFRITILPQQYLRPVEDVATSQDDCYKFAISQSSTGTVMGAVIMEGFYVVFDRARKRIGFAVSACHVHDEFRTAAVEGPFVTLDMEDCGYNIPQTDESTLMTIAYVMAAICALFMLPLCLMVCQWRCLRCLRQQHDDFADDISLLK

Compound | IC50 [1, 3] [nM] | IC50 [2] [nM] | IC50 ([1]; HEK293, average IC50) [nM]
NC1=N[C@@]2(CO1)c1cc(-c3cncnc3)ccc1Oc1c(F)cc(-n3cccn3)cc12 [Example 692, (4S)-4′-fluoro-2′-(1H-pyrazol-1-yl)-7′-(5-pyrimidinyl)spiro[1,3-oxazole-4,9′-xanthen]-2-amine] | 74 | 3.7 | –
NC1=N[C@@]2(CS1)c1cc(-c3cccnc3F)ccc1Oc1c2cc(C2=CCCOC2)nc1F [Example 1028, (S)-3-(5,6-dihydro-2H-pyran-3-yl)-1-fluoro-7-(2-fluoropyridin-3-yl)-5′H-spiro[chromeno[2,3-c]pyridine-5,4′-thiazol]-2′-amine] | – | 0.2 | 3
NC1=N[C@@]2(CO1)c1cc(-c3cnccn3)ccc1Oc1c(F)cc(OCC3CCOCC3)cc12 [Example 270, (4S)-4′-fluoro-7′-(2-pyrazinyl)-2′-(tetrahydro-2H-pyran-4-ylmethoxy)spiro[1,3-oxazole-4,9′-xanthen]-2-amine] | – | 5.4 | 33.6
NC1=N[C@@]2(CO1)c1cc(Br)ccc1Oc1c2cc(Cl)nc1F [Example 487, (5S)-7-bromo-3-chloro-1-fluorospiro[chromeno[2,3-c]pyridine-5,4′-[1,3]oxazol]-2′-amine] | 740 | 3680 | –
NC1=N[C@@]2(CO1)c1cc(-c3cccnc3F)ccc1Oc1c2cc(Cl)nc1F [Example 488, (5S)-3-chloro-1-fluoro-7-(2-fluoro-3-pyridinyl)spiro[chromeno[2,3-c]pyridine-5,4′-[1,3]oxazol]-2′-amine] | 358 | 6.6 | –
CN(c1cc(F)c2c(c1)[C@]1(COC(N)=N1)c1cc(-c3cccnc3F)ccc1O2)C1COC1 [Example 854, (4S)-4′-fluoro-7′-(2-fluoro-3-pyridinyl)-N~2~′-methyl-N~2~′-3-oxetanylspiro[1,3-oxazole-4,9′-xanthene]-2,2′-diamine] | 17 | 4.4 | –
NC1=N[C@@]2(CO1)c1cc(O)ccc1Oc1ncc(C3=CCOCC3)cc12 [Example 969, (5S)-2′-amino-3-(3,6-dihydro-2H-pyran-4-yl)spiro[chromeno[2,3-b]pyridine-5,4′-[1,3]oxazol]-7-ol] | ≥ 10000 | 835 | –
NC1=N[C@@]2(CO1)c1cc(-c3cncnc3)ccc1Oc1cnc(-c3cc(F)nc(F)c3)cc12 [Example 542, (5S)-3-(2,6-difluoro-4-pyridinyl)-7-(5-pyrimidinyl)spiro[chromeno[2,3-c]pyridine-5,4′-[1,3]oxazol]-2′-amine] | 18.8 | 1.1 | –
NC1=N[C@@]2(CS1)c1cc(-c3cccnc3)c(F)cc1Oc1c(F)cc(C3=CCCOC3)cc12 [Example 883, (4S)-7′-(5,6-dihydro-2H-pyran-3-yl)-3′,5′-difluoro-2′-(3-pyridinyl)spiro[1,3-thiazole-4,9′-xanthen]-2-amine] | 50 | 0.3 | –
CC1(COc2cc3c(cc2F)Oc2ccc(-c4cccnc4F)cc2[C@@]32COC(N)=N2)COC1 [Example 360, (4S)-3′-fluoro-7′-(2-fluoro-3-pyridinyl)-2′-((3-methyl-3-oxetanyl)methoxy)spiro[1,3-oxazole-4,9′-xanthen]-2-amine] | – | 2.9 | 22.4
NC1=N[C@@]2(CS1)c1cc(-c3ccc(F)nc3)ccc1Oc1ncc(Br)cc12 [Example 963, (5S)-3-bromo-7-(6-fluoro-3-pyridinyl)spiro[chromeno[2,3-b]pyridine-5,4′-[1,3]thiazol]-2′-amine] | 833 | 43.3 | –
COc1nc(-c2ccncc2)cc2c1Oc1ccc(-c3cccnc3F)cc1[C@@]21COC(N)=N1 [Example 834, (5S)-7-(2-fluoro-3-pyridinyl)-1-methoxy-3-(4-pyridinyl)spiro[chromeno[2,3-c]pyridine-5,4′-[1,3]oxazol]-2′-amine] | – | 3.5 | 70
CC(C)(O)C#Cc1c(OCC2(C)COC2)ccc2c1[C@]1(COC(N)=N1)c1cc(-c3cccnc3)ccc1O2 [Example 518, 4-((4S)-2-amino-2′-((3-methyl-3-oxetanyl)methoxy)-7′-(3-pyridinyl)spiro[1,3-oxazole-4,9′-xanthen]-1′-yl)-2-methyl-3-butyn-2-ol] | 64.9 | 75.5 | –
CCc1cc2c(c(F)n1)Oc1ccc(-c3cncc(F)c3)cc1[C@@]21COC(N)=N1 [Example 850, (5S)-3-ethyl-1-fluoro-7-(5-fluoro-3-pyridinyl)spiro[chromeno[2,3-c]pyridine-5,4′-[1,3]oxazol]-2′-amine] | 52 | 4.5 | –
COC1CN(c2cc(F)c3c(c2)[C@]2(COC(N)=N2)c2cc(-c4cccnc4F)ccc2O3)C1 [Example 281, (4S)-4′-fluoro-7′-(2-fluoro-3-pyridinyl)-2′-(3-methoxy-1-azetidinyl)spiro[1,3-oxazole-4,9′-xanthen]-2-amine] | – | 2 | 5.4
NC1=N[C@@]2(CO1)c1cc(-c3cncc(C4=CCOCC4)c3)ccc1Oc1cnc(C3=CCOCC3)cc12 [Example 231, (5S)-3-(3,6-dihydro-2H-pyran-4-yl)-7-(5-(3,6-dihydro-2H-pyran-4-yl)-3-pyridinyl)spiro[chromeno[2,3-c]pyridine-5,4′-[1,3]oxazol]-2′-amine] | – | 34 | 106
NC1=N[C@@]2(CO1)c1cc(-c3ccc(F)nc3)ccc1Oc1c(F)cc(C3CCOCC3)cc12 [Example 301, (4S)-4′-fluoro-7′-(6-fluoro-3-pyridinyl)-2′-(tetrahydro-2H-pyran-4-yl)spiro[1,3-oxazole-4,9′-xanthen]-2-amine] | – | 4.8 | 15.9
CC1(C)C[C@@H](c2cnc3c(c2)[C@]2(COC(N)=N2)c2cc(-c4cccnc4F)ccc2O3)CCO1 [Example 470, (5S)-3-((4S)-2,2-dimethyltetrahydro-2H-pyran-4-yl)-7-(2-fluoro-3-pyridinyl)spiro[chromeno[2,3-b]pyridine-5,4′-[1,3]oxazol]-2′-amine] | 14.9 | 3.3 | –
NC1=N[C@]2(CO1)c1cc(C3=CCOCC3)ccc1Oc1ccc(-c3cnccn3)cc12 [Example 192, (4R)-2′-(3,6-dihydro-2H-pyran-4-yl)-7′-(2-pyrazinyl)spiro[1,3-oxazole-4,9′-xanthen]-2-amine] | – | 13.1 | 35
NC1=N[C@@]2(CO1)c1cc(-c3cccnc3O)ccc1Oc1cnc(-c3ccnc(F)c3)cc12 [Example 712, (S)-3-(2′-amino-3-(2-fluoropyridin-4-yl)-5′H-spiro[chromeno[2,3-c]pyridine-5,4′-oxazole]-7-yl)pyridin-2-ol] | – | 69.7 | 1090
Cc1cncc(-c2ccc3c(c2)[C@@]2(COC(N)=N2)c2cc(OCC4(C)COC4)c(F)cc2O3)c1 [Example 328, (4S)-3′-fluoro-2′-((3-methyl-3-oxetanyl)methoxy)-7′-(5-methyl-3-pyridinyl)spiro[1,3-oxazole-4,9′-xanthen]-2-amine] | – | 23.6 | 45.6
NC1=N[C@@]2(CO1)c1cc(-c3cccc(Cl)c3)ccc1Oc1ncc(C3=CCCOC3)cc12 [Example 173, (5S)-7-(3-chlorophenyl)-3-(5,6-dihydro-2H-pyran-3-yl)spiro[chromeno[2,3-b]pyridine-5,4′-[1,3]oxazol]-2′-amine] | – | 0.6 | 5
CC1(C)C=C(c2cnc3c(c2)[C@]2(COC(N)=N2)c2c(ccc(-c4cncnc4)c2F)O3)CCO1 [Example 352, (5R)-3-(6,6-dimethyl-3,6-dihydro-2H-pyran-4-yl)-6-fluoro-7-(5-pyrimidinyl)spiro[chromeno[2,3-b]pyridine-5,4′-[1,3]oxazol]-2′-amine] | – | 2.8 | 19.4
NC1=N[C@@]2(CO1)c1cc(-c3cccnc3F)ccc1Oc1cnc(-c3ccnc(O)c3)cc12 [Example 842, 4-((5S)-2′-amino-7-(2-fluoro-3-pyridinyl)spiro[chromeno[2,3-c]pyridine-5,4′-[1,3]oxazol]-3-yl)-2-pyridinol] | – | 25.9 | 2560
COc1ccc2c(c1)[C@@]1(COC(N)=N1)c1cc(C3(O)CCOCC3)cc(F)c1O2 [Example 938, 4-((4S)-2-amino-4′-fluoro-7′-methoxyspiro[1,3-oxazole-4,9′-xanthen]-2′-yl)tetrahydro-2H-pyran-4-ol] | 3850 | 4430 | –
CC1(COc2cc3c(cc2F)Oc2ccc(-c4ccnc(Cl)c4)cc2[C@@]32COC(N)=N2)COC1 [Example 325, (4S)-7′-(2-chloro-4-pyridinyl)-3′-fluoro-2′-((3-methyl-3-oxetanyl)methoxy)spiro[1,3-oxazole-4,9′-xanthen]-2-amine] | – | 50.2 | 255
CC1(C#Cc2cc3c(cn2)Oc2ccc(-c4cc(Cl)cnc4F)cc2[C@@]32COC(N)=N2)COC1 [Example 158, (5S)-7-(5-chloro-2-fluoro-3-pyridinyl)-3-((3-methyl-3-oxetanyl)ethynyl)spiro[chromeno[2,3-c]pyridine-5,4′-[1,3]oxazol]-2′-amine] | – | 1 | 11.6
CC1(COc2cc(F)c3c(c2)[C@]2(COC(N)=N2)c2cc(-c4cncc(C#N)c4)ccc2O3)COC1 [Example 552, 5-((4S)-2-amino-5′-fluoro-7′-((3-methyl-3-oxetanyl)methoxy)spiro[1,3-oxazole-4,9′-xanthen]-2′-yl)-3-pyridinecarbonitrile] | 3.1 | 0.9 | –
CC1(C#Cc2cnc3c(c2)[C@]2(CSC(N)=N2)c2cc(-c4ccc(F)nc4)ccc2O3)COC1 [Example 961, (5S)-7-(6-fluoro-3-pyridinyl)-3-((3-methyl-3-oxetanyl)ethynyl)spiro[chromeno[2,3-b]pyridine-5,4′-[1,3]thiazol]-2′-amine] | 18 | 1 | –
